The source of these data is US20140243326A1, “Synergistic Insecticidal Mixtures” (priority 2003, published 2014).

Assay [1] concerns Phaedon cochleariae larvae. In words: Phaedon cochleariae larvae test (cabbage leaf dip). Type of assay: in vivo, mustard beetle (Phaedon cochleariae). The note with it: 4 ppm, single active ingredient. From the text: (§1) The expected effect for a given combination of two active ingredients can be calculated (cf. Colby, S. R., “Calculating Synergistic and Antagonistic Responses of Herbicide Combinations”, Weeds, 15, pp. 20-22, 1967).
(§2) If • X=the kill rate, expressed in % of the untreated control, while using active ingredient A in an application amount of m ppm, • Y=the kill rate, expressed in % of the untreated control, while using active ingredient B in an application amount of n ppm, • E=the kill rate, expressed in % of die untreated control, while using active ingredient A and B in application amounts of m and n ppm, then
(§3) If the actual kill rate is higher than calculated rate, the combination's kill rate is superadditive, i.e., it has a synergistic effect. In this case, the actually observed kill rate must be higher than the value calculated using the above formula for the expected kill rate (E).
(§4) Solvent: 7 parts per weight dimethyl formamide Emulsifiers: 2 parts by weight alkylaryl polyglycol ether
To manufacture one of the appropriate active ingredient preparations, mix 1 part by weight of the active ingredient with the indicated amount of solvent and emulsifier and dilute the concentrate with emulsifier-containing water to the desired concentration.
Cabbage leaves (Brassica oleracea) are treated by being dipped into the active ingredient preparation at the desired concentration and infested with larvae of the mustard beetle (Phaedon cochleariae) while the leaves are still damp.
After the desired time, determine the % that have been killed off. For this purpose 100% means that all the beetle larvae on the leaves were killed; 0% means that no beetle larvae were killed. Calculate the determined kill values using Colby's formula.

The test system of another assay is Myzus persicae. In words: Myzus persicae test (cabbage leaf dip). It counts as in vivo, green peach aphid (Myzus persicae). The note with it: single active ingredient.
From the text: as §1, §2, §3, §4
(§5) To prepare one of the appropriate active ingredient preparations, mix 1 part by weight of the active ingredient with the indicated amount of solvent and emulsifier and dilute the concentrate with emulsifier-containing water to the desired concentration.
Cabbage leaves (Brassica oleracea) that have been highly infested with the green peach aphid (Myzus persicae) are treated by being dipped into the active ingredient preparation at the desired concentration.
After the desired time, determine the % that have been killed off. For these purposes, 100% means that all the aphids on the leaves were killed; 0% means that no aphids were killed. Calculate the determined kill values using Colby's formula.

In assay [2] the test system is Plutella xylostella, resistant strain. Nature of the assay: Plutella xylostella test, resistant strain (cabbage leaf dip). The note with it: 100 ppm, single active ingredient. Type of assay: in vivo, diamondback moth (Plutella xylostella.
From the text: as §1, §2, §3
Solvent: 7 parts per weight dimethyl formamide Emulsifier: 2 parts by weight alkylaryl polyglycol ether
as §5
Cabbage leaves (Brassica oleracea) are treated by being dipped into the active ingredient preparation at the desired concentration and infested with diamondback moth grubs (Plutella xylostella, resistant strain) while the leaves are still damp.
After the desired time, determine the % that have been killed off. For these purposes 100% means that all the grubs on the leaves were killed; 0% means that no grubs were killed. Calculate the determined kill rate values using Colby's formula.

Values joined by “and” are separate entries in the source; they are usually repeats but may differ in a detail not shown here. Equal values may be shown once.

As to `CN/C(=N\[N+](=O)[O-])NCc1cnc(Cl)s1` [clothianidin], the “Kill rate in % after 6d” value in assay [1] worked out at 75%.
For `O=[N+]([O-])NC1=NCCN1Cc1ccc(Cl)nc1` [imidacloprid], in assay [1], the “Kill rate in % after 6d” value is listed as 45%.
Turning to `N#C/N=C1\SCCN1Cc1ccc(Cl)nc1` [thiacloprid], the “Kill rate in % after 6d” value in assay [1] amounted to 0%; in assay [2], 45%. In addition, the “Dead in % after 6d” value with Myzus persicae (0.8 ppm) is listed as 30%.
Take `CN1COCN(Cc2cnc(Cl)s2)/C1=N/[N+](=O)[O-]` [thiamethoxam]: the “Kill rate in % after 6d” value in assay [1] is on record as 25%; in the assay on Myzus persicae (0.8 ppm), 85%; in assay [2], 75%.
As to `CS/C(C)=N\OC(=O)N(C)SN(C)C(=O)O/N=C(\C)SC` [thiodicarb], in the assay with Myzus persicae (20 ppm), the “Dead in % after 6d” value was 0% and the “Kill rate in % after 6d” value was 0%. The “Kill rate in % after 6d” value in assay [2] was 15% and 5%.
